Laboratory results reported in ChEMBL document CHEMBL1144023, “Computer-aided discovery of anti-inflammatory thiazolidinones with dual cyclooxygenase/lipoxygenase inhibition” (J Med Chem, 2008).
The source made the active and inactive calls. No cut-off for these calls is given here.

Columns and labels:
[1] = target: T1, Prostaglandin G/H synthase 1 (Ovis aries) (UniProt P05979); assay: Inhibition of sheep COX1 at 200 uM in presence of 1 uM arachidonic acid
T1 sequence (whole entry): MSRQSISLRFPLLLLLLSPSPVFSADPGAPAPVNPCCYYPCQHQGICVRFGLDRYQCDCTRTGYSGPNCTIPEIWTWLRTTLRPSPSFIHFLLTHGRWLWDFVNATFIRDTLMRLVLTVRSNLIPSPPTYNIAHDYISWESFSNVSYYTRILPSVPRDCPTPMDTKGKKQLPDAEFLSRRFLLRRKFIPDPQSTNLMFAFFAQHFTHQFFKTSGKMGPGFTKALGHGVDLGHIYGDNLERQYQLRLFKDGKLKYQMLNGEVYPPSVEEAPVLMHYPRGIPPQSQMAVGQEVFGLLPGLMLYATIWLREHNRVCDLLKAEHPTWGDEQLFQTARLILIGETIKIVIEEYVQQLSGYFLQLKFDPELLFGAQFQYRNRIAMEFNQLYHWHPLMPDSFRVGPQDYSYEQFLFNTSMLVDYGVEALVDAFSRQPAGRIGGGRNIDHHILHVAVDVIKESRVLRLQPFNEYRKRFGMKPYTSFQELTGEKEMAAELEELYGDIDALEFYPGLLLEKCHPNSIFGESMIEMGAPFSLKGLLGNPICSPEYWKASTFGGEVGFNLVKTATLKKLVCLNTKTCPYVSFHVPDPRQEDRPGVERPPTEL

[2] = system: Mus musculus; assay: Antiinflammatory activity in AKR mouse assessed as inhibition of carrageenan-induced paw edema at 0.01 mmol/kg; format: functional
[3] = target: T1, Prostaglandin G/H synthase 1 (Ovis aries); assay: Inhibition of sheep COX1 at 200 uM in presence of 100 uM arachidonic acid
[4] = target: T2, Prostaglandin G/H synthase 2 (Homo sapiens, UniProt P35354); assay: Inhibition of human recombinant COX2
T2 sequence (P35354 whole entry): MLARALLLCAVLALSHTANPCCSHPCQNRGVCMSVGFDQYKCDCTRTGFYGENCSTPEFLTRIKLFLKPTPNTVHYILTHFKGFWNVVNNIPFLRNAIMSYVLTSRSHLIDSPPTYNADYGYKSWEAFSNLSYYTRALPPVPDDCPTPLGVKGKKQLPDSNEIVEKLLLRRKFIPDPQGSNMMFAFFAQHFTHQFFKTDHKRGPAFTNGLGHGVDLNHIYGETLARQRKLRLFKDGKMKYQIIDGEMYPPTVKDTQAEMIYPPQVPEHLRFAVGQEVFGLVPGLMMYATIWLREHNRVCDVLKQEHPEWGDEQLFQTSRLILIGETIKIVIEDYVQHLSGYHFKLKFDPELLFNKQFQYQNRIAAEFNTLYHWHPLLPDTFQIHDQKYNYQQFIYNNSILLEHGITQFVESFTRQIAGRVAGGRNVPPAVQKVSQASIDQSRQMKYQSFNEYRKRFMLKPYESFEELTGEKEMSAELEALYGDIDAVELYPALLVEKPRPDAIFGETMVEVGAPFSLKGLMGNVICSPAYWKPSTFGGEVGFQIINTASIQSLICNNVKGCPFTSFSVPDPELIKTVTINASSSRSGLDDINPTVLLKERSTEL

[5] = target: T3, Prostaglandin G/H synthase 2 (Homo sapiens) (UniProt P35354); assay: Inhibition of human recombinant COX2 at 200 uM
T3 sequence (whole entry): T2 sequence (P35354 whole entry)

[6] = target: T4, Seed linoleate 13S-lipoxygenase-1 (Glycine max) (UniProt P08170); assay: Inhibition of soybean LOX at 100 uM
T4 sequence (whole entry): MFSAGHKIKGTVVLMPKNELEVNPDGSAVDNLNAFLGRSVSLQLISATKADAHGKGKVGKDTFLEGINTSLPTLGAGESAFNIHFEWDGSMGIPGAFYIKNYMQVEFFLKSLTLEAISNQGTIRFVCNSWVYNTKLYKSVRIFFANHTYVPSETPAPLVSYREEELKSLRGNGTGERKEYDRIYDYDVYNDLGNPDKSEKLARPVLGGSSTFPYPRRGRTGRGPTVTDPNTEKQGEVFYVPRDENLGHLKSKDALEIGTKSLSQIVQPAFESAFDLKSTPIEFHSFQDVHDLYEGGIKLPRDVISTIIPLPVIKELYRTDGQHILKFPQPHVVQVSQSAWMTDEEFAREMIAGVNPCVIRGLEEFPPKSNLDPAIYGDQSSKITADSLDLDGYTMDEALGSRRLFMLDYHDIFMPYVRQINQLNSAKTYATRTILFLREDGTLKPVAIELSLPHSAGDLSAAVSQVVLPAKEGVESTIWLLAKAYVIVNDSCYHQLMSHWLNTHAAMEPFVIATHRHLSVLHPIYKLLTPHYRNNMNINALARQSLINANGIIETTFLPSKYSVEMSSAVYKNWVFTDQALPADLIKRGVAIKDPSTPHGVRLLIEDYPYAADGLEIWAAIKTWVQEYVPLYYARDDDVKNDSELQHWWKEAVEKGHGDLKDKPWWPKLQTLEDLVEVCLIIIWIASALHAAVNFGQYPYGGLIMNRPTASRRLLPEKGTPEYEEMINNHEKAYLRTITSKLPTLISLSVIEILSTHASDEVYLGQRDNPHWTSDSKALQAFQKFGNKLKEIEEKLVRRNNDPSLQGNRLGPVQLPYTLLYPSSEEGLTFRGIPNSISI

With O=C1N/C(=N\c2nccs2)S/C1=C/c1cccc(Cl)c1 the inhibition [1] was 90%, the inhibition in vivo at 10 µmol/kg [2] was 44.5% and the Activity [3] was “inactive”. For the same molecule, the IC50 [4] was 262 µM, the inhibition [5] was 30.4% and the inhibition [6] was 12%.

O=C1CSC(Nc2nccs2)=N1 was tested, and the inhibition [1] was 0% and the inhibition [5] was 0%.

With COc1ccc(/C=C2/S/C(=N/c3nccs3)NC2=O)cc1 the inhibition [1] was 8%, the inhibition in vivo at 10 µmol/kg [2] was 51.1% and the Activity [3] was “inactive”. For the same molecule, the inhibition [5] was 2.5% and the inhibition [6] was 22.4%.

For O=C1N/C(=N\c2nccs2)S/C1=C/c1ccc([N+](=O)[O-])cc1, the inhibition [1] was 60%, the inhibition in vivo at 10 µmol/kg [2] was 66.1% and the Activity [3] was “inactive”. The inhibition [5] was 4.5% and the inhibition [6] was 12.5%.
